Patent US11813285B2, “Stable pharmaceutical composition comprising esomeprazole and sodium bicarbonate” (CHONG KUN DANG PHARMACEUTICAL CORP., priority 2018, dated 2023)
Read-outs that look alike come from different tables or passages of the source. Values belong to the compound of their own block, whether it stands above or below them.

What was measured:
[1] = Stability test of esomeprazole and omeprazole according to pH; format: physicochemical; settings: in % (unit assumed)
Protocol: <Analysis method> A) Detector: UV-Visible spectrophotometer (measurement wavelength:280 nm) B) Column: Inertsil C8-3 (4.6×150 mm, 5 μm) or equivalent column C) Injection amount: 20 μl D) Flow rate: 1.5 mL/min E) Column temperature: Constant temperature near 40° C. F) Sample temperature: Constant temperature near 10° C. […] H) Mobile phase: […] The buffer solution at pH 7.6 was prepared as follows: 0.725 g of sodium dihydrogen phosphate monohydrate (NaH2PO4.H2O) and 4.472 g of anhydrous disodium hydrogen phosphate (Na2HPO4) were weighed to be put in an 1 L volumetric flask and dissolved in purified water, followed by filling the flask with purified water up to the calibration mark. 250 mL of the liquid was taken to be put in an 1 L volumetric flask, followed by filling the flask with purified water up to the calibration mark and adjusting the pH to 7.6 with phosphoric acid.

[2] = for pH of simulated gastric juice: 200 mL simulated gastric juice + 200 mL purified water, 37° C.
Protocol: A pH was measured according to the change of the dose of sodium bicarbonate in a solution (37° C.) where 200 mL of purified water was put in 200 mL of simulated gastric juice.

assay of esomeprazole and omeprazole according to pH ([1]; buffer pH 4.0, 5 min): 57.2 | assay of esomeprazole and omeprazole according to pH ([1]; buffer pH 4.0, 10 min): 29.4 | assay of esomeprazole and omeprazole according to pH ([1]; buffer pH 4.0, 15 min): 15.3 | assay of esomeprazole and omeprazole according to pH ([1]; buffer pH 4.0, 30 min): 6.7 | assay of esomeprazole and omeprazole according to pH ([1]; buffer pH 4.0, 45 min): 1.6 | assay of esomeprazole and omeprazole according to pH ([1]; buffer pH 4.0, 60 min): 0.8 | assay of esomeprazole and omeprazole according to pH ([1]; buffer pH 4.0, 120 min): 0.1 | assay of esomeprazole and omeprazole according to pH ([1]; buffer pH 6.0, 5 min): 74.9 | assay of esomeprazole and omeprazole according to pH ([1]; buffer pH 6.0, 10 min): 74.2 | assay of esomeprazole and omeprazole according to pH ([1]; buffer pH 6.0, 15 min): 71.7 | assay of esomeprazole and omeprazole according to pH ([1]; buffer pH 6.0, 30 min): 69.6 | assay of esomeprazole and omeprazole according to pH ([1]; buffer pH 6.0, 45 min): 65.4 | assay of esomeprazole and omeprazole according to pH ([1]; buffer pH 6.0, 60 min): 64.1 | assay of esomeprazole and omeprazole according to pH ([1]; buffer pH 6.0, 120 min): 55.1 | assay of esomeprazole and omeprazole according to pH ([1]; buffer pH 6.8, 5 min): 91.5 | assay of esomeprazole and omeprazole according to pH ([1]; buffer pH 6.8, 10 min): 90.5 | assay of esomeprazole and omeprazole according to pH ([1]; buffer pH 6.8, 15 min): 89.9 | assay of esomeprazole and omeprazole according to pH ([1]; buffer pH 6.8, 30 min): 89.8 | assay of esomeprazole and omeprazole according to pH ([1]; buffer pH 6.8, 45 min): 88.8 | assay of esomeprazole and omeprazole according to pH ([1]; buffer pH 6.8, 60 min): 88.3 | assay of esomeprazole and omeprazole according to pH ([1]; buffer pH 6.8, 120 min): 85.5 | assay of esomeprazole and omeprazole according to pH ([1]; buffer pH 7.0, 5 min): 100.5 | assay of esomeprazole and omeprazole according to pH ([1]; buffer pH 7.0, 10 min): 99.0 | assay of esomeprazole and omeprazole according to pH ([1]; buffer pH 7.0, 15 min): 98.9 | assay of esomeprazole and omeprazole according to pH ([1]; buffer pH 7.0, 30 min): 98.2 | assay of esomeprazole and omeprazole according to pH ([1]; buffer pH 7.0, 45 min): 97.9 | assay of esomeprazole and omeprazole according to pH ([1]; buffer pH 7.0, 60 min): 97.5 | assay of esomeprazole and omeprazole according to pH ([1]; buffer pH 7.0, 120 min): 95.8 | assay of esomeprazole and omeprazole according to pH ([1]; buffer pH 7.3, 5 min): 99.8 | assay of esomeprazole and omeprazole according to pH ([1]; buffer pH 7.3, 10 min): 100.0 | assay of esomeprazole and omeprazole according to pH ([1]; buffer pH 7.3, 15 min): 99.9 | assay of esomeprazole and omeprazole according to pH ([1]; buffer pH 7.3, 30 min): 99.8 | assay of esomeprazole and omeprazole according to pH ([1]; buffer pH 7.3, 45 min): 99.8 | assay of esomeprazole and omeprazole according to pH ([1]; buffer pH 7.3, 60 min): 99.8 | assay of esomeprazole and omeprazole according to pH ([1]; buffer pH 7.3, 120 min): 99.86 | assay of esomeprazole and omeprazole according to pH ([1]; buffer pH 7.5, 5 min): 100.5 | assay of esomeprazole and omeprazole according to pH ([1]; buffer pH 7.5, 10 min): 99.7 | assay of esomeprazole and omeprazole according to pH ([1]; buffer pH 7.5, 15 min): 99.7 | assay of esomeprazole and omeprazole according to pH ([1]; buffer pH 7.5, 30 min): 99.4 | assay of esomeprazole and omeprazole according to pH ([1]; buffer pH 7.5, 45 min): 99.2 | assay of esomeprazole and omeprazole according to pH ([1]; buffer pH 7.5, 60 min): 98.9 | assay of esomeprazole and omeprazole according to pH ([1]; buffer pH 7.5, 120 min): 98.2 | assay of esomeprazole and omeprazole according to pH ([1]; buffer pH 8.0, 15 min): 99.7 | assay of esomeprazole and omeprazole according to pH ([1]; buffer pH 8.0, 30 min): 99.6 | assay of esomeprazole and omeprazole according to pH ([1]; buffer pH 8.0, 45 min): 99.5 | assay of esomeprazole and omeprazole according to pH ([1]; buffer pH 8.0, 60 min): 99.5 | assay of esomeprazole and omeprazole according to pH ([1]; buffer pH 8.0, 120 min): 98.6
SMILES: COc1ccc2[nH]c([S+]([O-])Cc3ncc(C)c(OC)c3C)nc2c1 (centres unmarked) [Omeprazole, 5-methoxy-2-[(4-methoxy-3,5-dimethyl-2-pyridinyl)methyl]sulfinyl-1H-benzimidazol]

assay of esomeprazole and omeprazole according to pH ([1]; buffer pH 4.0, 5 min): 64.1 | assay of esomeprazole and omeprazole according to pH ([1]; buffer pH 4.0, 10 min): 31.0 | assay of esomeprazole and omeprazole according to pH ([1]; buffer pH 4.0, 15 min): 15.9 | assay of esomeprazole and omeprazole according to pH ([1]; buffer pH 4.0, 30 min): 6.9 | assay of esomeprazole and omeprazole according to pH ([1]; buffer pH 4.0, 45 min): 1.7 | assay of esomeprazole and omeprazole according to pH ([1]; buffer pH 4.0, 60 min): 0.9 | assay of esomeprazole and omeprazole according to pH ([1]; buffer pH 4.0, 120 min): 0.1 | assay of esomeprazole and omeprazole according to pH ([1]; buffer pH 6.0, 5 min): 74.4 | assay of esomeprazole and omeprazole according to pH ([1]; buffer pH 6.0, 10 min): 72.8 | assay of esomeprazole and omeprazole according to pH ([1]; buffer pH 6.0, 15 min): 71.0 | assay of esomeprazole and omeprazole according to pH ([1]; buffer pH 6.0, 30 min): 68.9 | assay of esomeprazole and omeprazole according to pH ([1]; buffer pH 6.0, 45 min): 66.3 | assay of esomeprazole and omeprazole according to pH ([1]; buffer pH 6.0, 60 min): 63.6 | assay of esomeprazole and omeprazole according to pH ([1]; buffer pH 6.0, 120 min): 54.9 | assay of esomeprazole and omeprazole according to pH ([1]; buffer pH 6.8, 5 min): 95.6 | assay of esomeprazole and omeprazole according to pH ([1]; buffer pH 6.8, 10 min): 90.8 | assay of esomeprazole and omeprazole according to pH ([1]; buffer pH 6.8, 15 min): 90.5 | assay of esomeprazole and omeprazole according to pH ([1]; buffer pH 6.8, 30 min): 89.7 | assay of esomeprazole and omeprazole according to pH ([1]; buffer pH 6.8, 45 min): 88.9 | assay of esomeprazole and omeprazole according to pH ([1]; buffer pH 6.8, 60 min): 88.3 | assay of esomeprazole and omeprazole according to pH ([1]; buffer pH 6.8, 120 min): 86.2 | assay of esomeprazole and omeprazole according to pH ([1]; buffer pH 7.0, 5 min): 99.6 | assay of esomeprazole and omeprazole according to pH ([1]; buffer pH 7.0, 10 min): 99.0 | assay of esomeprazole and omeprazole according to pH ([1]; buffer pH 7.0, 15 min): 99.3 | assay of esomeprazole and omeprazole according to pH ([1]; buffer pH 7.0, 30 min): 98.9 | assay of esomeprazole and omeprazole according to pH ([1]; buffer pH 7.0, 45 min): 98.7 | assay of esomeprazole and omeprazole according to pH ([1]; buffer pH 7.0, 60 min): 98.1 | assay of esomeprazole and omeprazole according to pH ([1]; buffer pH 7.0, 120 min): 96.8 | assay of esomeprazole and omeprazole according to pH ([1]; buffer pH 7.3, 5 min): 100.1 | assay of esomeprazole and omeprazole according to pH ([1]; buffer pH 7.3, 10 min): 100.1 | assay of esomeprazole and omeprazole according to pH ([1]; buffer pH 7.3, 15 min): 100.0 | assay of esomeprazole and omeprazole according to pH ([1]; buffer pH 7.3, 30 min): 100.0 | assay of esomeprazole and omeprazole according to pH ([1]; buffer pH 7.3, 45 min): 100.0 | assay of esomeprazole and omeprazole according to pH ([1]; buffer pH 7.3, 60 min): 100.0 | assay of esomeprazole and omeprazole according to pH ([1]; buffer pH 7.3, 120 min): 99.90 | assay of esomeprazole and omeprazole according to pH ([1]; buffer pH 7.5, 5 min): 99.4 | assay of esomeprazole and omeprazole according to pH ([1]; buffer pH 7.5, 10 min): 99.3 | assay of esomeprazole and omeprazole according to pH ([1]; buffer pH 7.5, 15 min): 99.2 | assay of esomeprazole and omeprazole according to pH ([1]; buffer pH 7.5, 30 min): 99.1 | assay of esomeprazole and omeprazole according to pH ([1]; buffer pH 7.5, 45 min): 99.3 | assay of esomeprazole and omeprazole according to pH ([1]; buffer pH 7.5, 60 min): 99.1 | assay of esomeprazole and omeprazole according to pH ([1]; buffer pH 7.5, 120 min): 98.2 | assay of esomeprazole and omeprazole according to pH ([1]; buffer pH 8.0, 15 min): 101.1 | assay of esomeprazole and omeprazole according to pH ([1]; buffer pH 8.0, 30 min): 100.9 | assay of esomeprazole and omeprazole according to pH ([1]; buffer pH 8.0, 45 min): 100.7 | assay of esomeprazole and omeprazole according to pH ([1]; buffer pH 8.0, 60 min): 100.7 | assay of esomeprazole and omeprazole according to pH ([1]; buffer pH 8.0, 120 min): 100.0
SMILES: COc1ccc2[nH]c([S@@+]([O-])Cc3ncc(C)c(OC)c3C)nc2c1 [S-omeprazole, (S)-5-methoxy-2-[(4-methoxy-3,5-dimethyl-2-pyridinyl)-methyl]sulfinyl-1H-benzimidazol]

dose of sodium bicarbonate that can neutralize 200 mL of simulated gastric juice to show neutral pH ([2]; 200 mL simulated gastric juice): at least 600 mg | pH of simulated gastric juice ([2]; sodium bicarbonate 500 mg): 5.77 | pH of simulated gastric juice ([2]; sodium bicarbonate 600 mg): 6.51 | pH of simulated gastric juice ([2]; sodium bicarbonate 700 mg): 7.30 | pH of simulated gastric juice ([2]; sodium bicarbonate 800 mg): 7.30 | pH of simulated gastric juice ([2]; sodium bicarbonate 900 mg): 7.31 | pH of simulated gastric juice ([2]; sodium bicarbonate 1,000 mg): 7.37 | pH of simulated gastric juice ([2]; sodium bicarbonate 1,100 mg): 7.38 | pH of simulated gastric juice ([2]; sodium bicarbonate 1,200 mg): 7.38 | pH of simulated gastric juice ([2]; sodium bicarbonate 1,300 mg): 7.40
SMILES: O=C([O-])O.[Na+] [sodium bi-carbonate, sodium bicarbonate]
